Laboratory results taken from patent publication US20240376085A1 (Janssen Pharmaceutica NV, priority 2021, published 2024).
pIC50: −log10 of the molar value.

Columns and labels:
[1] = system: IL-17A-induced G-CSF production in human normal keratinocyte (NHK); test: NHK assay: IL-17A-induced G-CSF production in normal human keratinocytes; assay type: cell-based; conditions: 24 h, IL-17A 5 ng/mL, average if tested more than once
Summary of the method: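 Stimulus rhIL-17A 5 ng/mL final, premixed 1 h rt with compound; adult NHK, 5% FBS, 0.2% DMSO. Viability by CellTiter-Glo vs DMSO.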

IL-17A : IL-17RA binding = molecular target: T1, IL-17A : IL-17RA binding (Homo sapiens, UniProt Q16552, K93Q); test: IL-17A(FLAG-tagged):IL-17RA(His-tagged) binding disruption Eu-HTRF assay, Protocol 1; conditions: FLAG-IL-17A 2.5 nM at 2x final concentration; average if tested more than once
T1 construct: Name: IL-17A-Flag
Summary of the method: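 IC50 came from a one-site competition fit of the acceptor/donor (665/620 nm) HTRF ratio. His-tagged IL-17RA, Eu-anti-FLAG and D2-anti-His were added after a 1 h rt compound preincubation with FLAG-tagged IL-17A dimer in PBS/0.01% Triton X-100, followed by 2 h at rt before reading.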

T1 sequence (Q16552 with tags, fused parts or gaps K93Q): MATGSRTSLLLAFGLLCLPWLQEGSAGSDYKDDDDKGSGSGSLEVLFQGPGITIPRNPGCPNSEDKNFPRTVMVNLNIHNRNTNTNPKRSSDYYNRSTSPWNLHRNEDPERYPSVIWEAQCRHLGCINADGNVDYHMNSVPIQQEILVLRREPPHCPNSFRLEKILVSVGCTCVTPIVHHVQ

Compound | pIC50 (IL-17A : IL-17RA binding) | pIC50 ([1]; Homo sapiens, Keratinocyte) | pIC50 [1]
C[C@@H](NC(=O)CCC(F)(F)F)c1ccc2[nH]c([C@@H](NC(=O)c3cncn3CCC(F)(F)F)C3CCC(F)(F)CC3)nc2c1 [Example 216, N—((S)-(4,4-Difluorocyclohexyl)(5-((R)-1-(4,4,4-trifluorobutanamido)ethyl)-1H-benzo[d]imidazol-2-yl)methyl)-1-(3,3,3-trifluoropropyl)-1H-imidazole-5-carboxamide] | < 7.00 | < 7.00 | 
C[C@@H](NC(=O)CCC(F)(F)F)c1ccc2[nH]c([C@@H](NC(=O)[C@@H]3C[C@@H]3F)C3CCC(F)(F)CC3)nc2c1 [Example 101, (1S,2S)—N—((S)-(4,4-Difluorocyclohexyl)(5-((R)-1-(4,4,4-trifluorobutanamido)ethyl)-1H-benzo[d]imidazol-2-yl)methyl)-2-fluorocyclopropane-1-carboxamide] | < 7.00 | < 7.00 | 
C[C@@H](NC(=O)CCC(F)(F)F)c1ccc2nc([C@@H](NC(=O)c3cnn(CC4CC(F)(F)C4)n3)C3CCC(F)(F)CC3)[nH]c2c1 [Example 64, 2-((3,3-Difluorocyclobutyl)methyl)-N—((S)-(4,4-difluorocyclohexyl)(6-((R)-1-(4,4,4-trifluorobutanamido)ethyl)-1H-benzo[d]imidazol-2-yl)methyl)-2H-1,2,3-triazole-4-carboxamide] | < 7.00 | < 7.00 | 
C[C@@H](NC(=O)CCC(F)(F)F)c1ccc2[nH]c([C@@H](NC(=O)c3cn(CC4CCC4)nc3C(N)=O)C3CCC(F)(F)CC3)nc2c1 [Example 89, 1-(Cyclobutylmethyl)-N^4—((S)-(4,4-difluorocyclohexyl)(5-((R)-1-(4,4,4-trifluorobutanamido)ethyl)-1H-benzo[d]imidazol-2-yl)methyl)-1H-pyrazole-3,4-dicarboxamide] | < 7.00 | < 7.00 | 
CC(C)(C[C@H](NC(=O)c1nonc1C1CC1)c1nc2ccc([C@H](NC(=O)CCC(F)F)C3CC3)cc2[nH]1)C(F)(F)F [Example 185, 4-Cyclopropyl-N—((S)-1-(6-((R)-cyclopropyl(4,4-difluorobutanamido)methyl)-1H-benzo[d]imidazol-2-yl)-4,4,4-trifluoro-3,3-dimethylbutyl)-1,2,5-oxadiazole-3-carboxamide] | > 7.30 | < 7.00 | 
CCc1nonc1C(=O)N[C@@H](CC(C)(C)C(F)(F)F)c1nc2cc([C@H](NC(=O)CCC(F)(F)F)C3CC3)ccc2[nH]1 (relative stereo) [Example 190, N—((S*)-1-(5-((R*)-Cyclopropyl(4,4,4-trifluorobutanamido)methyl)-1H-benzo[d]imidazol-2-yl)-4,4,4-trifluoro-3,3-dimethylbutyl)-4-ethyl-1,2,5-oxadiazole-3-carboxamide] | > 7.30 | > 7.30 | 
CC(C)(OCC(NC(=O)c1nonc1C1CC1)c1nc2ccc([C@H](NC(=O)CC3CC(F)(F)C3)C3CC3)cc2[nH]1)C(F)(F)F (single isomer, unassigned) [Example 163, 4-Cyclopropyl-N—((S*)-1-(6-((R)-cyclopropyl(2-(3,3-difluorocyclobutyl)acetamido)methyl)-1H-benzo[d]imidazol-2-yl)-2-((1,1,1-trifluoro-2-methylpropan-2-yl)oxy)ethyl)-1,2,5-oxadiazole-3-carboxamide] | < 7.00 | < 7.00 | 
C[C@@H](NC(=O)CCC(F)(F)F)c1ccc2[nH]c([C@@H](NC(=O)c3nn(CC4CCC4)cc3C#N)C3CCC(F)(F)CC3)nc2c1 [Example 91, 4-Cyano-1-(cyclobutylmethyl)-N—((S)-(4,4-difluorocyclohexyl)(5-((R)-1-(4,4,4-trifluorobutanamido)ethyl)-1H-benzo[d]imidazol-2-yl)methyl)-1H-pyrazole-3-carboxamide] | < 7.00 | < 7.00 | 

Now from value to compound, other results behind:

pIC50 (IL-17A : IL-17RA binding) | Compound | pIC50 ([1]; Homo sapiens, Keratinocyte) | pIC50 [1]
< 7.00 | Cn1nccc1C(=O)N[C@H](c1nc2cc(C(CC3CCC3)NC(=O)CCC(F)(F)F)ccc2[nH]1)C1CCC(F)(F)CC1 (single isomer, unassigned) [Example 46, N—((S)-(5-((S*)-2-Cyclobutyl-1-(4,4,4-trifluorobutanamido)ethyl)-1H-benzo[d]imidazol-2-yl)(4,4-difluorocyclohexyl)methyl)-1-methyl-1H-pyrazole-5-carboxamide] | < 7.00 | 
< 7.00 | C[C@@H](NC(=O)CCC(F)(F)F)c1ccc2[nH]c([C@@H](NC(=O)c3cnn(CC45CC(C#N)(C4)C5)n3)C3CCC(F)(F)CC3)nc2c1 [Example 78, 2-((3-Cyanobicyclo[1.1.1]pentan-1-yl)methyl)-N—((S)-(4,4-difluorocyclohexyl)(5-((R)-1-(4,4,4-trifluorobutanamido)ethyl)-1H-benzo[d]imidazol-2-yl)methyl)-2H-1,2,3-triazole-4-carboxamide] | < 7.00 | 
< 7.00 | CC(NC(=O)CCC(F)(F)F)c1ccc2nc([C@H](CC(C)(C)C(F)(F)F)NC(=O)c3ccnn3CCC(F)(F)F)[nH]c2c1 (single isomer, unassigned) [Example 230, N—((S)-4,4,4-Trifluoro-3,3-dimethyl-1-(6-((R*)-1-(4,4,4-trifluorobutanamido)ethyl)-1H-benzo[d]imidazol-2-yl)butyl)-1-(3,3,3-trifluoropropyl)-1H-pyrazole-5-carboxamide] |  | 7.00 to 7.30
< 7.00 | Cc1c(C(=O)N[C@H](c2nc3cc([C@@H](C)NC(=O)CCC(F)(F)F)ccc3[nH]2)C2CCC(F)(F)CC2)cnn1CCC#N [Example 17, 1-(2-Cyanoethyl)-N—[(S)-(4,4-difluorocyclohexyl)-[6-[(1R)-1-(4,4,4-trifluorobutanoylamino)ethyl]-1H-benzimidazol-2-yl]methyl]-5-methyl-pyrazole-4-carboxamide] | < 7.00 | 
7.00 to 7.30 | CC(C)n1nccc1C(=O)N[C@H](c1nc2ccc([C@H](NC(=O)CC3CC(F)(F)C3)C3CC3)cc2[nH]1)[C@@H]1CCCCO1 (relative stereo) [Example 250, N—((R*)-(6-((R)-Cyclopropyl(2-(3,3-difluorocyclobutyl)acetamido)methyl)-1H-benzo[d]imidazol-2-yl)((S*)-tetrahydro-2H-pyran-2-yl)methyl)-1-isopropyl-1H-pyrazole-5-carboxamide] | 7.00 to 7.30 | 
< 7.00 | COCCn1nncc1C(=O)N[C@H](c1nc2cc([C@@H](C)NC(=O)CCC(F)(F)F)ccc2[nH]1)C1CCC(F)(F)CC1 [Example 15, N—[(S)-(4,4-Difluorocyclohexyl)-[6-[(1R)-1-(4,4,4-trifluorobutanoylamino)ethyl]-1H-benzimidazol-2-yl]methyl]-3-(2-methoxyethyl)triazole-4-carboxamide] | < 7.00 | 
< 7.00 | C[C@@H](NC(=O)CCC(F)(F)F)c1ccc2[nH]c([C@@H](NC(=O)c3ccnn3CC(F)(F)F)C3CCC(F)(F)CC3)nc2c1 [Example 128, N—((S)-(4,4-Difluorocyclohexyl)(5-((R)-1-(4,4,4-trifluorobutanamido)ethyl)-1H-benzo[d]imidazol-2-yl)methyl)-1-(2,2,2-trifluoroethyl)-1H-pyrazole-5-carboxamide] | < 7.00 | 
< 7.00 | C[C@@H](NC(=O)CCC(F)(F)F)c1ccc2nc([C@@H](NC(=O)c3cn(CC(F)(F)F)nc3C3CC3)C3CCC(F)(F)CC3)[nH]c2c1 [Example 75, 3-Cyclopropyl-N—((S)-(4,4-difluorocyclohexyl)(6-((R)-1-(4,4,4-trifluorobutanamido)ethyl)-1H-benzo[d]imidazol-2-yl)methyl)-1-(2,2,2-trifluoroethyl)-1H-pyrazole-4-carboxamide] | < 7.00 | 
